Reference: US9814758B2, “Inhibitors of apoptosis and uses thereof” (CENTRE NATIONAL DE LA RECHERCHE SCIENTIFIQUE-CNRS, priority 2010, dated 2017)
Non-standard residues stand in square brackets, D forms with d. Residues, ends and D or L forms follow the SMILES beside them. No end group written: not given here. Ahx = NCCCCCC(=O)O

System: primary cardiomyocytes
Experiment: STS-induced DNA fragmentation (Cell Death detection ELISA PLUS) in primary cardiomyocytes
Type: cell-based, mouse
Settings: for reduction of DNA fragmentation: peptide given together with staurosporine, 1 μM, related to STS-treated cells (=100%), FIG. 5B
Procedure: FIG. 5: In vitro evaluation of the anti-apoptotic activity of CPPs and CPP-conjugates. Workflow and quantitation of DNA fragmentation in (A) C2C12 cells, (B) primary cardiomyocytes, (C) H9c2 cells and (D) NG108-15 cells. Data were normalized to 100% STS. Data shown are the means±SEM, with n≧5. Cells were seeded in 24-well plates and grown overnight. The next day, the cells were incubated with STS alone or with STS+1 μM peptide (in OPTI-MEM) (OPTI-MEM® is a modification of Eagle's Minimum Essential Media, buffered with HEPES and sodium bicarbonate, and supplemented with hypoxanthine, thymidine, sodium pyruvate, L-glutamine, trace elements, and growth factors) (STS concentration and incubation time for each cells are given in the figure). Thereafter, solutions were removed, replaced by complete medium and further incubated for 40 h. Following the regeneration phase, the cells were lyzed and DNA fragmentation was detected according to manufacturer's instructions (Cell Death detection ELISA^PLUS kit—Roche Diagnostics).
FIG. 6: Anti-apoptotic activity of variants of the Tat-DAXXp sequence on primary cardiomyocytes. As described in the caption of FIG. 5, the different analogues of the DAXXp sequence (see Table 2) were assessed for anti-apoptotic properties against STS (Cell Death detection ELISA^PLUS kit—Roche Diagnostics) (A-B). None of the analogues were able to protect the primary cardiomyocytes—a fact which confirms that the 16mer DAXXp has the optimal length and sequence for highest cardioprotective effect.
FIG. 7: Comparison of the murine/rat DAXXp with the human DAXXp sequence in terms of anti-apoptotic activity on C2C12 cells, primary cardiomyocytes, and H9c2. The murine DAXXp sequence conjugated to Tat (Tat-mDAXXp—SEQ ID NO: 61) which is identical to the rat DAXXp sequence (see FIG. 1B), was compared to the human construct (Tat-DAXXp) in terms of anti-apoptotic properties against STS (Cell Death detection ELISA^PLUS kit—Roche Diagnostics). The C2C12 cells and the primary cardiomyocytes used were from mice and the H9c2 cells from rat.
FIG. 9: Comparison of FADDp constructs with Tat-DAXXp in terms of anti-apoptotic activity in primary cardiomyocytes and in H9c2 cells. Quantification of DNA normalized to 100% STS. Data shown are the means±SEM, with n≧5. Cells were seeded in 24-well plates and grown overnight. The next day, the cells were incubated with STS alone or with STS+1 μM peptide (in OPTI-MEM®) (OPTI-MEM® is a modification of Eagle's Minimum Essential Media, buffered with HEPES and sodium bicarbonate, and supplemented with hypoxanthine, thymidine, sodium pyruvate, L-glutamine, trace elements, and growth factors) (STS concentration is given in the figure and incubation time is given in FIG. 5). Thereafter, solutions were removed, replaced by complete medium and further incubated for 40 hours. Following the regeneration phase, the cells were lyzed and DNA fragmentation was detected according to manufacturer's instructions (Cell Death detection ELISA^PLUS kit—Roche Diagnostics).
FIG. 10: Comparison of Tat-DAXXp and Tat-FADDp15 alone and in combination in primary cardiomyocytes (A) and in H9c2 cells (B).
Thereafter, the capacity of these peptides to inhibit apoptosis induced by staurosporine was evaluated. Apoptosis was determined using the Cell Death detection ELISA^PLUS kit (Roche) measuring the DNA fragmentation.
In most publications, anti-apoptotic peptides currently available in the art are administrated 3-4 hours prior to apoptosis induction, which is poorly relevant to a clinical application. For that reason, the protocol used in the present study included administration of the peptides together with the staurosporine. […] This was not observed with CPP alone or with the Tat-scrDAXXp or Tat-ncDAXXp negative controls. […] To better compare the results, the DNA fragmentation (described by the enrichment factor) is related to the staurosporine-treated cells (=100%).

Row | Molecule | reduction of DNA fragmentation | ability to decrease cell apoptosis / protect the cells (against STS)
1 | CC[C@H](C)[C@H](NC(=O)[C@H](Cc1c[nH]cn1)NC(=O)[C@@H](NC(=O)[C@H](CCCNC(=N)N)NC(=O)CCCCCNC(=O)[C@H](CCCNC(=N)N)NC(=O)[C@H](CCCNC(=N)N)NC(=O)CCCCCNC(=O)[C@H](CCCNC(=N)N)NC(=O)[C@H](CCCNC(=N)N)NC(=O)CCCCCNC(=O)[C@@H](N)CCCNC(=N)N)[C@@H](C)CC)C(=O)N[C@@H](CC(C)C)C(=O)N[C@@H](Cc1ccccc1)C(=O)N[C@@H](CCC(N)=O)C(=O)N[C@@H](CC(N)=O)C(=O)N[C@H](CCCNC(=N)N)C(=O)N[C@@H](CCCNC(=N)N)C(=O)N[C@@H](CCSC)C(=O)N[C@@H](CCCCN)C(=O)N[C@@H](Cc1c[nH]c2ccccc12)C(=O)N[C@@H](Cc1c[nH]cn1)C(=O)N[C@@H](CCCCN)C(=O)N[C@@H](CCCCN)C(=O)N[C@@H](CCCCN)C(=O)N[C@@H](CO)C(=O)N[C@@H](CCCNC(=N)N)C(=O)N[C@@H](CCCCN)C(=O)N[C@@H](CCC(=O)O)C(=O)N[C@@H](CCCCN)C(=O)N[C@@H](CCCCN)C(=O)N[C@@H](CCC(N)=O)C(=O)N[C@H](C(=O)NCC(=O)N[C@@H](CO)C(=O)NCC(=O)N1CCC[C@H]1C(=O)N[C@@H](CC(C)C)C(=O)NCC(N)=O)[C@@H](C)O [Pip2b-DAXXp, (RXR)3-IHILFQNrRMKWHK-KKSRKEKKQTGSGPLG-NH2] (H-R[Ahx]RR[Ahx]RR[Ahx]RIHILFQN[dR]RMKWHKKKSRKEKKQTGSGPLG-NH2; N-terminus assumed) | 55% | 
2 | GRKKRRQRRRPPQKKSRKEKKQTGSGPLG-NH2 [Tat-DAXXp, GRKKRRQRRRPPQ-KKSRKEKKQTGSGPLG-NH2] | 44% | 
3 | KKSRKEKKQTGSGPLG-NH2 [DAXXp, KKSRKEKKQTGSGPLG-NH2] |  | capable of decreasing cell apoptosis
